# Measurements as given in patent publication US6669946B2, “METHOD FOR IDENTIFYING INDIVIDUALS SUFFERING FROM A CELLULAR ABNORMALITY SOME OF WHOSE ABNORMAL CELLS PRESENT COMPLEXES OF HUMAN LEUKOCYTE ANTIGEN TYROSINASE DERIVED PEPTIDES, AND METHODS FOR TREATING SAID INDIVIDUALS” (Ludwig Institute for Cancer Research, priority 1992, dated 2003).
# “Also recorded” adds a separate entry of the source.
# B1: second gene fragment: fragment from base 1 to base 1092 of SEQ ID NO: 1, not encoding SEQ ID NO: 2 (nucleic acid)
# DNA: GACCTTGTGAGGACTAGAGGAAGAATGCTCCTGGCTGTTTTGTACTGCCTGCTGTGGAGTTTCCAGACCTCCGCTGGCCATTTCCCTAGAGCCTGTGTCTCCTCTAAGAACCTGATGGAGAAGGAATGCTGTCCACCGTGGAGCGGGGACAGGAGTCCCTGTGGCCAGCTTTCAGGCAGAGGTTCCTGTCAGAATATCCTTCTGTCCAATGCACCACTTGGGCCTCAATTTCCCTTCACAGGGGTGGATGACCGGGAGTCGTGGCCTTCCGTCTTTTATAATAGGACCTGCCAGTGCTCTGGCAACTTCATGGGATTCAACTGTGGAAACTGCAAGTTTGGCTTTTGGGGACCAAACTGCACAGAGAGACGACTCTTGGTGAGAAGAAACATCTTCGATTTGAGTGCCCCAGAGAAGGACAAATTTTTTGCCTACCTCACTTTAGCAAAGCATACCATCAGCTCAGACTATGTCATCCCCATAGGGACCTATGGCCAAATGAAAAATGGATCAACACCCATGTTTAACGACATCAATATTTATGACCTCTTTGTCTGGATGCATTATTATGTGTCAATGGATGCACTGCTTGGGGGATCTGAAATCTGGAGAGACATTGATTTTGCCCATGAAGCACCAGCTTTTCTGCCTTGGCATAGACTCTTCTTGTTGCGGTGGGAACAAGAAATCCAGAAGCTGACAGGAGATGAAAACTTCACTATTCCATATTGGGACTGGCGGGATGCAGAAAAGTGTGACATTTGCACAGATGAGTACATGGGAGGTCAGCACCCCACAAATCCTAACTTACTCAGCCCAGCATCATTCTTCTCCTCTTGGCAGATTGTCTGTAGCCGATTGGAGGAGTACAACAGCCATCAGTCTTTATGCAATGGAACGCCCGAGGGACCTTTACGGCGTAATCCTGGAAACCATGACAAATCCAGAACCCCAAGGCTCCCCTCTTCAGCTGATGTAGAATTTTGCCTGAGTTTGACCCAATATGAATCTGGTTCCATGGATAAAGCTGCCAATTTCAGCTTTAGAAATACACTGGAAGGATTTGCTAGTCCACTTACTGGGATAGCGGAT
# B2: 400 base pair fragment: fragment corresponding to bases 711 to 1152 of SEQ ID NO: 1 (nucleic acid)
# DNA: AAACTTCACTATTCCATATTGGGACTGGCGGGATGCAGAAAAGTGTGACATTTGCACAGATGAGTACATGGGAGGTCAGCACCCCACAAATCCTAACTTACTCAGCCCAGCATCATTCTTCTCCTCTTGGCAGATTGTCTGTAGCCGATTGGAGGAGTACAACAGCCATCAGTCTTTATGCAATGGAACGCCCGAGGGACCTTTACGGCGTAATCCTGGAAACCATGACAAATCCAGAACCCCAAGGCTCCCCTCTTCAGCTGATGTAGAATTTTGCCTGAGTTTGACCCAATATGAATCTGGTTCCATGGATAAAGCTGCCAATTTCAGCTTTAGAAATACACTGGAAGGATTTGCTAGTCCACTTACTGGGATAGCGGATGCCTCTCAAAGCAGCATGCACAATGCCTTGCACATCTATATGAATGGAACAATGTCCCAG
# How the values were obtained:
# Format in all cases: cell-based, human
# [1] = system: cytolytic T cell clone CTL IVSB; assay: 51Cr release assay on peptide-sensitized HLA-A2 presenting cells with CTL IVSB; details: SK29-MEL 1.218 and T202LB; peptide 100 μM down to 0.01 μM; E/T ratio 40/1; four hours
# Procedure: (§1) Using the methodologies described in examples 1-5, various fragments of the CDNA were cotransfected with a gene for HLA-A2 in COS-7 cells, and TNF release assays were performed. […] The 400 base fragment used corresponded to bases 711 to 1152 of SEQ ID NO: 1. The amino acid sequence for which the fragment codes was deduced, and this sequence was then compared to the information provided by Hunt et al., Science 255: 1261 (1992), and Falk et al., Nature 351: 290 (1991), the disclosures of which are both incorporated by reference in their entirety. These references discuss consensus sequences for HLA-A2 presented peptides. Specifically, Hunt discusses nonapeptides, where either Leu or Ile is always found at the second position, Leu being the “dominant residue”. The ninth residue is described as always being a residue with an aliphatic hydrocarbon side chain. Val is the dominant residue at this position. […]
# (§2) The tyrosinase loss variants, cytolytic T cell clones, and peptides were incubated for one hour in a solution containing ^51Cr, at 37° C., either with or without anti HLA-A2 antibody MA2.1, which was used to stabilize empty HLA-A2 molecules. […] After 30 minutes, effector cells were added at an E/T ratio of 40/1 and four hours later, 10λ of supernatant were collected and radioactivity counted.
# [2] = system: cytolytic T cell clone CTL 2/9; assay: 51Cr release assay on peptide-sensitized HLA-A2 presenting cells with CTL 2/9; details: SK29-MEL 1.218 and T202LB; peptide 100 μM down to 0.01 μM; E/T ratio 40/1; four hours
# Procedure: as §1, §2
# CTL clone CTL 210/9 = assay: Parallel peptide recognition experiment with CTL 210/9
# Procedure: as §1
# as §2, with “counted. […]” for “counted.”
# CTL IVSB = assay: TNF release by CTL IVSB on COS-7 cells cotransfected with HLA-A2 and cDNA pool or fragment; details: COS-7 cotransfected with cDNA fragment and HLA-A2 gene
# Procedure: (§3) The amplified plasmids were then transfected into eukaryotic cells. Samples of COS-7 cells were seeded, at 15,000 cells/well into tissue culture flat bottom microwells, in Dulbeco's modified Eagles Medium (“DMEM”) supplemented with 10% fetal calf serum. The cells were incubated overnight at 37° C., medium was removed and then replaced by 30 μl/well of DMEM medium containing 10% Nu serum, 400 μg/ml DEAE-dextran, 100 μM chloroquine, 100 ng of plasmid pcDNA-I/Amp-A2 and 100 ng of DNA of a pool of the cDNA library described supra. Plasmid pcDNA-I/Amp-A2 contains the HLA-A2 gene from SK29-MEL. Following four hours of incubation at 37° C, the medium was removed, and replaced by 50 μl of PBS containing 10% DMSO. This medium was removed after two minutes and replaced by 200 μl of DMEM supplemented with 10% of FCS.
# (§4) Following this change in medium, COS cells were incubated for 48 hours at 37° C. Medium was then discarded, and 2000 cells of either of the described CTL clones were added, in 100 μl of Iscove medium containing 10% pooled human serum. When clone 210/9 was used, the medium was supplemented with 25 U/ml of IL-2. Supernatant was removed after 24 hours, and TNF content was determined in an assay on WEHI cells, as described by Traversari et al., Immunogenetics 35: 145-152 (1992), the disclosure of which is incorporated by reference. […]
# CTL 210/9 = assay: TNF release by CTL 210/9 on COS-7 cells cotransfected with HLA-A2 and cDNA pool or fragment; details: COS-7 cotransfected with cDNA fragment and HLA-A2
# Procedure: as §3, §4
Molecule,recognition of complexes of HLA-A2 and peptide by CTL IVSB [1],recognition of peptide by CTL 2/9 [2],recognition of complexes of HLA-A2 and peptide by CTL 210/9 (CTL clone CTL 210/9),TNF release from / recognition by CTL IVSB (CTL IVSB),recognition by CTL 210/9 of antigen on transfected cells (CTL 210/9)
"Tyr Met Asn Gly Thr Met Ser Gln Val (YMNGTMSQV) [SEQ ID NO: 2, tyrosinase derived nonapeptide presented by HLA-A2]",recognition; also recorded: recognized,not,not recognized; also recorded: did not recognize,–,–
B1,–,–,–,did not,recognized
B2,–,–,–,provoked TNF release,–
